Measured values as given in US20110152267A1, “Compositions and Methods for Treating Hyperproliferative Disorders” (Texas Tech University System, priority 2009, published 2011).

What was measured:
Format in all cases: cell-based, human
[1] = tested on: U-118 Glioblastoma cell line; assay: DIMSCAN cytotoxicity, fenretinide + L-threo-sphinganines 3:1 (Example B5); design: key to CI (Combination Index): CI<0.9 synergy, 0.9-1.1 additive, >1.1 antagonistic; conditions: U-118 MG, 96 h
Procedure: (§1) Cytotoxicity Assay—Once again, cytotoxicity is determined using the DIMSCAN assay system (R. Proffitt et al., Cytometry 24, 204-213 (1996); T. Frgala et al., Mol Cancer Ther. 6:886-97, 2007). The system employs digital imaging microscopy to quantify viable cells, which selectively accumulate fluorescein diacetate to become brightly fluorescent. The system is capable of measuring cytotoxicity over a 4-5 log dynamic range by quenching the residual fluorescence of dead and dying cells with eosin Y and quantifying the total fluorescence of viable cells using digital thresholding. Measured fluorescence is directly proportionate to the number of viable cells. A comparison of the total fluorescence of a drug-treated cell population to the fluorescence of a similar number of untreated cells yields a survival fraction. In brief, 2000 to 10,000 cells/well (depending on size and growth rates) are replicate plated into 60 wells of a 96-well tissue culture plate in 0.1 mL of whole medium and allowed to attach overnight. Drug(s) are then added in 0.05 mL of whole medium to the final concentrations indicated. Drugs (fenretinide, and various chain length L-threo-sphinganines) were tested both as single agents and in a 3:1 ratio of fenretinide:sphinganine. C18-L-threo-sphinganine, or “safingol,” was also tested and results shown for reference. There are 12 wells treated per drug concentration. Twelve wells receive drug vehicle-only to the appropriate final concentration and serve as controls for the plate. Cells are incubated for 96 hours at 37° C. in ambient air with 5% CO2. Fluorescein diacetate is then added to each well in 0.05 mL media to a final concentration of 8 microgram/mL. Cells are incubated for a further 15 minutes at 37° C. and 0.03 mL of 0.5% eosin Y is added to each well. Total fluorescence of viable cells is then measured by digital imaging microscopy. Results were graphed as the ratio of the fluoresecence of drug-treated wells to non-drug treated control wells (i.e., Survival Fraction). All tests were performed at least twice. Representative results are shown.
(§2) The Combination Index (CI) is a term to describe mathematical modeling of the pharmacologic effects on cytotoxicity (cell death) of two drugs in combination based. Cytotoxic “synergy” is defined as a cell death affect which is greater than would be expected from a simple product of the single agent cytotoxicities alone (i.e. an “additive” effect). By Chou-Talalay analysis, a CI<0.9 on a Fraction Affected (“Fa”, i.e. fraction of cells killed) indicates synergy, with smaller numbers indicating greater synergy; a CI of 0.9-1.1 signifies an additive or near-additive effect; and a CI>1.1 means the drug combination is antagonistic.
Fenretinide and L-threo-sphinganines tested in human Glioblastoma (brain cancer) cell line, U-118.

[2] = tested on: PC-3 prostate adenocarcinoma cell line; assay: DIMSCAN cytotoxicity, fenretinide + L-threo-sphinganines 3:1 (Example B17)
Procedure: as §1, §2
Fenretinide and L-threo-sphinganines tested in human prostate adenocarcinoma (prostate cancer) cell line, PC-3.

[3] = tested on: A-549 lung adenocarcinoma cell line; assay: DIMSCAN cytotoxicity, fenretinide + L-threo-sphinganines 3:1 (Example B13); conditions: 96 h
Procedure: as §1, §2
Fenretinide and L-threo-sphinganines tested in human lung adenocarcinoma (lung cancer) cell line, A-549.

[4] = tested on: A-2058 melanoma cell line; assay: DIMSCAN cytotoxicity, fenretinide + L-threo-sphinganines 3:1 (Example B11); conditions: 96 h
Procedure: as §1, §2
Fenretinide and L-threo-sphinganines tested in human melanoma (skin cancer) cell line, A-2058.

[5] = tested on: SJ-G2 Glioblastoma cell line; assay: DIMSCAN cytotoxicity, fenretinide + L-threo-sphinganines 3:1 (Example B8); conditions: 96 h
Procedure: as §1, §2
Fenretinide and L-threo-sphinganines tested in human Glioblastoma (brain cancer) cell line, SJ-G2.

[6] = tested on: RPMI-8226 Multiple Myeloma cell line; assay: DIMSCAN cytotoxicity, fenretinide + L-threo-sphinganines 3:1 (Example B2); conditions: 96 h
Procedure: as §1, §2
Fenretinide and L-threo-sphinganines tested in human Multiple Myeloma (a cancer of the blood and bone marrow) cell line, RPMI-8226.

[7] = tested on: T98G Glioblastoma multiforme cell line; assay: DIMSCAN cytotoxicity, fenretinide + L-threo-sphinganines 3:1 (Example B6); conditions: 96 h
Procedure: as §1, §2
Fenretinide and L-threo-sphinganines tested in human Glioblastoma multiforme (brain cancer) cell line, T98G.

[8] = tested on: HT-29 colorectal adenocarcinoma cell line; assay: DIMSCAN cytotoxicity, fenretinide + L-threo-sphinganines 3:1 (Example B10); conditions: 96 h
Procedure: as §1, §2
Fenretinide and L-threo-sphinganines tested in human colorectal adenocarcinoma (colon cancer) cell line, HT-29.

[9] = 4-HPR 1.5 μM + L-threo-sphinganine 0.5 μM
[10] = 4-HPR 3 μM + L-threo-sphinganine 1 μM
[11] = 4-HPR 6 μM + L-threo-sphinganine 2 μM
[12] = 4-HPR 9 μM + L-threo-sphinganine 3 μM

SMILES: CCCCCCCCCCCCCCCC[C@H](O)[C@@H](N)CO [C19, (2S,3S)-2-amino-1,3-nonadecanediol]
- CI (Combination Index) [1, 9]: 1.3
- Fa (fraction affected) [1, 9]: 0.530
- CI (Combination Index) [1, 10]: 0.9
- Fa (fraction affected) [1, 10]: 0.882
- CI (Combination Index) [1, 11]: 0.4
- Fa (fraction affected) [1, 11]: 0.991
- CI (Combination Index) [1, 12]: 0.3
- Fa (fraction affected) [1, 12]: 0.998
- CI [2, 9]: 1.0
- Fa [2, 9]: 0.233
- CI [2, 10]: 1.1
- Fa [2, 10]: 0.406
- CI [2, 11]: 1.1
- Fa [2, 11]: 0.635
- CI [2, 12]: 0.5
- Fa [2, 12]: 0.913
- CI (Combination Index) [3, 9]: 1.6
- Fa (fraction affected) [3, 9]: 0.000
- CI (Combination Index) [3, 10]: 0.6
- Fa (fraction affected) [3, 10]: 0.007
- CI (Combination Index) [3, 11]: 0.7
- Fa (fraction affected) [3, 11]: 0.159
- CI (Combination Index) [3, 12]: 0.9
- Fa (fraction affected) [3, 12]: 0.413
- CI (Combination Index) [4, 9]: 2.1
- Fa (fraction affected) [4, 9]: 0.016
- CI (Combination Index) [4, 10]: 1.7
- Fa (fraction affected) [4, 10]: 0.198
- CI (Combination Index) [4, 11]: 1.8
- Fa (fraction affected) [4, 11]: 0.648
- CI (Combination Index) [4, 12]: 0.8
- Fa (fraction affected) [4, 12]: 0.997
- CI (Combination Index) [5, 9]: 0.7
- Fa (fraction affected) [5, 9]: 0.389
- CI (Combination Index) [5, 10]: 0.8
- Fa (fraction affected) [5, 10]: 0.700
- CI (Combination Index) [5, 11]: 0.6
- Fa (fraction affected) [5, 11]: 0.975
- CI (Combination Index) [5, 12]: 0.7
- Fa (fraction affected) [5, 12]: 0.983
- CI (Combination Index) [6, 9]: 0.9
- Fa (fraction affected) [6, 9]: 0.649
- CI (Combination Index) [6, 10]: 0.9
- Fa (fraction affected) [6, 10]: 0.895
- CI (Combination Index) [6, 11]: 0.5
- Fa (fraction affected) [6, 11]: 0.996
- CI (Combination Index) [6, 12]: >0.1
- Fa (fraction affected) [6, 12]: 1.000
- CI (Combination Index) [7, 9]: 0.9
- Fa (fraction affected) [7, 9]: 0.584
- CI (Combination Index) [7, 10]: 1.1
- Fa (fraction affected) [7, 10]: 0.704
- CI (Combination Index) [7, 11]: 0.1
- Fa (fraction affected) [7, 11]: 0.990
- CI (Combination Index) [7, 12]: 0.1
- Fa (fraction affected) [7, 12]: 0.995
- CI (Combination Index) [8, 9]: 1.2
- Fa (fraction affected) [8, 9]: 0.138
- CI (Combination Index) [8, 10]: 1.0
- Fa (fraction affected) [8, 10]: 0.736
- CI (Combination Index) [8, 11]: 0.8
- Fa (fraction affected) [8, 11]: 0.965
- CI (Combination Index) [8, 12]: 0.8
- Fa (fraction affected) [8, 12]: 0.993

SMILES: CCCCCCCCCCCC[C@H](O)[C@@H](N)CO [C15]
- CI (Combination Index) [1, 9]: 0.4
- Fa (fraction affected) [1, 9]: 0.371
- CI (Combination Index) [1, 10]: 0.5
- Fa (fraction affected) [1, 10]: 0.577
- CI (Combination Index) [1, 11]: 0.4
- Fa (fraction affected) [1, 11]: 0.847
- CI (Combination Index) [1, 12]: 0.1
- Fa (fraction affected) [1, 12]: 0.989
- CI [2, 9]: 0.6
- Fa [2, 9]: 0.200
- CI [2, 10]: 0.9
- Fa [2, 10]: 0.287
- CI [2, 11]: 1.2
- Fa [2, 11]: 0.417
- CI [2, 12]: 1.0
- Fa [2, 12]: 0.621
- CI (Combination Index) [3, 9]: 1.9
- Fa (fraction affected) [3, 9]: 0.000
- CI (Combination Index) [3, 10]: 2.1
- Fa (fraction affected) [3, 10]: 0.000
- CI (Combination Index) [3, 11]: 0.9
- Fa (fraction affected) [3, 11]: 0.044
- CI (Combination Index) [3, 12]: 0.8
- Fa (fraction affected) [3, 12]: 0.342
- CI (Combination Index) [4, 9]: 0.5
- Fa (fraction affected) [4, 9]: 0.053
- CI (Combination Index) [4, 10]: 0.9
- Fa (fraction affected) [4, 10]: 0.106
- CI (Combination Index) [4, 11]: 1.6
- Fa (fraction affected) [4, 11]: 0.262
- CI (Combination Index) [4, 12]: 1.7
- Fa (fraction affected) [4, 12]: 0.867
- CI (Combination Index) [5, 9]: 1.1
- Fa (fraction affected) [5, 9]: 0.135
- CI (Combination Index) [5, 10]: 1.3
- Fa (fraction affected) [5, 10]: 0.282
- CI (Combination Index) [5, 11]: 1.3
- Fa (fraction affected) [5, 11]: 0.620
- CI (Combination Index) [5, 12]: 1.0
- Fa (fraction affected) [5, 12]: 0.846
- CI (Combination Index) [6, 9]: 1.0
- Fa (fraction affected) [6, 9]: 0.518
- CI (Combination Index) [6, 10]: 1.1
- Fa (fraction affected) [6, 10]: 0.75
- CI (Combination Index) [6, 11]: 0.5
- Fa (fraction affected) [6, 11]: 0.978
- CI (Combination Index) [6, 12]: 0.2
- Fa (fraction affected) [6, 12]: 0.998
- CI (Combination Index) [7, 9]: 1.3
- Fa (fraction affected) [7, 9]: 0.516
- CI (Combination Index) [7, 10]: 1.3
- Fa (fraction affected) [7, 10]: 0.683
- CI (Combination Index) [7, 11]: 1.0
- Fa (fraction affected) [7, 11]: 0.849
- CI (Combination Index) [7, 12]: 0.4
- Fa (fraction affected) [7, 12]: 0.962
- CI (Combination Index) [8, 9]: 2.0
- Fa (fraction affected) [8, 9]: 0.204
- CI (Combination Index) [8, 10]: 0.8
- Fa (fraction affected) [8, 10]: 0.660
- CI (Combination Index) [8, 11]: 1.1
- Fa (fraction affected) [8, 11]: 0.859
- CI (Combination Index) [8, 12]: 0.8
- Fa (fraction affected) [8, 12]: 0.976
